Experimental data from patent US10240133B2, “ERK-derived peptides and uses thereof” (Yeda Research and Development Co. Ltd., priority 2013, dated 2019).

Tests used:
A2352 xenografts = test: Tumor disappearance and recurrence in A2352 xenografts, EPE peptide compared with PLX4032; type: in vivo, SCID mice
Procedure: FIGS. 6A-6B illustrate that the EPE peptide prevents the growth of human tumor xenografts. CD-1 nude mice were inoculated with MDA-MB-231, LOXIMVI and HCT-116 cells, and SKID mice were inoculated with A2352 cells. Upon tumors establishment, the mice were treated intravenously with the DMSO as well as EPE or Scr peptides in the indicated doses, 3 times a week. The results are averages of 5 mice in each experimental group. The X, Y, Z dimensions of the tumors were measured with a caliper, and the volume was calculated accordingly. The significance of all experiments was at least P<0.001. (B) The EPE peptide prevents tumor recurrence on melanoma xenograft. SCID mice were inoculated with A2352 cells. Upon establishment of tumors mice were treated intravenously with 15 mg/kg EPE peptide (n=7) or intraperitonealy with 15 mg/kg PLX4032 (n=5), at the indicated dose 3 times a week. Tumor size was recorded at the same time using a caliper. Following 3 weeks of treatment, mice were kept for further evaluation monitoring for any tumor recurrence of the effective treated melanoma xenografts. Experiment was concluded 110 days post inoculation (11 weeks after the last treatment) and the overall state of the animals was evaluated. sac=sacrificed, recur=recurrence, met=metastasis.
Tumor dimensions were measured with a digital sliding caliper.

most cell lines examined = test: Morphology assay (light microscopy); type: cell-based; settings: 10 μM
Procedure: (§1) FIGS. 5A-5D illustrate that the EPE peptide leads to apoptosis of B-Raf mutant cancer cells. (A) The EPE peptide affects the morphology of treated cells. The indicated cells were treated with either the EPE or Scr peptides, DMSO, or taxol for 72 h, and photographed by a light microscope. (B) The EPE peptide induces apoptosis in melanoma cells detected by TUNEL. The indicated cell lines were treated as in A for 24 h. Apoptosis was detected by TUNEL staining. Images were obtained by florescence microscope. (C) Quantification of B. The bar-graph represents percent of apoptotic cells calculated in 10 different fields. (D) The EPE peptide induces apoptosis of melanoma cells detected by PARP cleavage. The indicated cell lines were treated as in (A) for 24 h. Cell extracts were subjected to Western blotting with αPARP Ab.
(§2) Cells were seeded on glass cover slips in a 12-wells plate at 25% confluence with medium containing 1% of FCS. Peptides (EPE or Scr), DMSO, or U0126 in a final concentration of 10 μM, were added after 4 h (considered as time “0”). TUNEL staining was performed at 24 h after the treatment according to manufacturer instruction (Roche Applied Science, Nutley, N.J., USA). Briefly, the medium was removed and cells were fixed with 3% of paraformaldehyde (1.5 h, 23° C.). Cells were rinsed twice with PBS and permeabilized with 0.1% Triton X-100 and 0.1% sodium citrate for 2 min on ice. Cells were rinsed twice with PBS and 28 μl of TUNEL reaction mixture (25 μl of TUNEL label, 2.5 μl of TUNEL enzyme and 0.1 mg/ml of DAPI) was added directly on top of the slide, cells were incubated for 16 h in humid box at 37° C. Cover slips were rinsed three times with PBS and mounted on microscope slides. The slides were dried and then subjected to image acquisition by a florescence microscope. For morphology assay, the cells were seeded at approximately 25% confluence in 6 cm plates with medium containing 1% FCS. Peptides (EPE and Scr) or DMSO or U0126 in a final concentration of 10 μM, were added after 4 h (considered to be time 0), 24 h and 48 h. […]

B-Raf melanoma cells = test: Morphology assay (light microscopy); type: cell-based; settings: 10 μM
Procedure: as §1, §2

[1] = tested on: N-Ras transformed melanoma cells LOXIMVI; test: Cell viability, EPE peptide compared with PLX4032; type: cell-based; settings: EPE 10 μM, PLX4032 1 μM, 1% FCS
Procedure: FIGS. 3A-3B illustrate that EPE peptide prevents proliferation of cancer but not normal cells. (A) Effect of the EPE peptide on the proliferation of various cell lines. Sixteen cancer and four “normal” immortalized cell lines were treated with either EPE or scrambled peptides as described above. Viable cells were assayed by Methylene Blue at 48 or 72 hours after cell seeding. The data from at least three independent experiments is presented as percent of the amount of viable cells/initial cell number, where initial cell number was considered as 100. (B) Comparison of the effects of the EPE-peptide and Raf inhibitor PLX4032 on cell viability. NHEM-Ad, LOXIMVI, A2352, Hela MDA-MB-231, and DU-145 cells were treated with EPE peptide, scrambled peptide, (10 μM), PLX4032 (1 μM), DMSO control, or no treatment at 1% FCS. The number of cells was detected as above. The graphs present the kinetic of cell growth at the indicated times. All experiments were repeated 3 times in triplicates.
All cells, except of MCF-10A, were seeded into 12-well cell plates in 1% FBS medium. MCF-10A cells were seeded in their complete medium diluted 5 fold. DMSO, Scr peptide, EPE peptide, or U0126 (final concentration of 10 μM each) were added to the appropriated wells four hours later. Every day medium was changed to fresh one containing the same agents. The number of viable cells was measured by Methylene Blue assay at 72 h after cell seeding. Shortly, cells were fixed with 4% Formaldehyde for 2 h at 23° C., washed once with 0.1M Borate Buffer pH 8.5 and stained with of 1% Methylene Blue in 0.1M Borate Buffer for 10 min. Color was extracted by adding 0.1 M HCl for 3 h at 23° C., and examined at 595 nm. For time course experiments, viable cells were measured at 0, 24, 48, 72 and 96 h after cell seeding. For dose response experiments we treaded the cells with 0.1, 1, 3, 10, or 30 μM of peptides for 72 h, as described above.

## GQLNHILGILGEPEQED (Synthetic peptide (EPE)) [EPE peptide, NTS-derived peptide with phosphomimetic EPE motif]
A2352 xenografts; 15 mg/kg, 3 times a week
  time to complete disappearance of tumors: 10 to 23 days
A2352 xenografts; 15 mg/kg, 3 times a week, 3 weeks, EPE i.v. (n=7), PLX4032 i.p. (n=5), initial ~80 mm3 tumors
  tumor disappearance: complete disappearance of the tumors of all mice
A2352 xenografts; follow up after last treatment, incl. 5 other animals in a repeating experiment
  overall state of animals after treatment: remained healthy up to 11 weeks after treatment
A2352 xenografts; follow up for up to 11 weeks after last treatment
  mice with tumor recurrence: None
Most cell lines examined
  cell morphology: no effect
B-Raf melanoma cells
  cell morphology: inducing cell-break already 24 hours after treatment
[1]
  viability: able to reduce the viability
